# Patent US20180116975A1, “COMPOSITIONS AND COMBINATIONS FOR THE TREATMENT OF ANGIOGENESIS DISEASES AND DISORDERS” (BIOMAS LTD., priority 2015, published 2018)
# B1: Ranibizumab (antibody, chains of the INN, looked up, V domains shown)
# VH: EVQLVESGGGLVQPGGSLRLSCAASGYDFTHYGMNWVRQAPGKGLEWVGWINTYTGEPTYAADFKRRFTFSLDTSKSTAYLQMNSLRAEDTAVYYCAKYPYYYGTSHWYFDVWGQGTLVTVSS
# VL: DIQLTQSPSSLSASVGDRVTITCSASQDISNYLNWYQQKPGKAPKVLIYFTSSLHSGVPSRFSGSGSGTDFTLTISSLQPEDFATYYCQQYSTVPWTFGQGTKVEIK
# System: patients with AMD (PED, subretinal fluid)
# Assay: Clinical study (compassionate treatment): oral AS101 in conjunction with intra vitreal anti VEGF injections
# Format: in vivo, human
# Excerpt: Patients were orally administered with AS101/Formula I in conjunction with intraocular injections of intra vitreal anti VEGF. […] A special compassionate approval has been given by the local committee of ethics in Meir medical center, Kfar Saba, and the Ministry of Health in Israel to treat these two patients with orally taken AS101.
# Patient underwent an additional intra-vitreal Lucentis injection and from this point examination continued every month with treatment in PRN mode. Until Jul. 26, 2012 the patient underwent 9 intra-vitreal Lucentis injections. On January 2013 treatment was switched to Aflibercept (Eylea) and the patient received 3 montly injection and an additional injection on Jun. 18, 2013.
# The patient received an intravitreal triancinolon acetonid injection followed by the 3rd lucentis one week later. […] The patient received 2 additional Lucentis injections and on Nov. 27, 2012 treatment was switched to Eylea when it became available in Israel. The patient received 8 monthly Eylea injections, the last one on Jun. 18, 2013.
# On Jul. 7, 2013, the patient started to receive 12 drops of AS101 every day orally. On Aug.
# Except for one occasion of a 5 month interval between 2 injections, the patient received an injection every month. […] Four days after the last Lucentis injection, on 13 Aug. 2013 the patient started to take 12 drops of AS101 orally.
molecule,measurement,setting,value
"Aflibercept [Eylea, reference compound]",amount of the subretinal fluid over the peak of the PED and at the slope,"Case 1, left eye, 8 monthly injections, before AS101",did not change
Cl[TeH]1(Cl)(Cl)OCCO1 [AS101],OCT finding after discontinuation of AS101,"Case 1, 3 weeks after AS101 was discontinued",development of new subretinal fluid in both eyes
same,time without need for additional injections,"Case 1, left eye, until discontinuation of AS101",8 months
same,subretinal fluid at the base of the PED (OCT),"Case 1, left eye, 12 drops AS101 daily orally, one month after Lucentis with triamcinilon acetonide injections",decrease of the amount of the subretinal fluid
same,subretinal fluid at the slope of the PED (OCT),"Case 1, left eye, next 3 monthly OCT tests after cataract surgery, on AS101",absorbed for the first time since it appeared
same,time without need for intravitreal injections,"Case 1, right eye, until discontinuation of AS101",10 months
same,adverse events,"Case 2, 12 drops AS101 orally",No adverse events were reported
same,last visual acuity,"Case 2, left eye, Nov. 11, 2014, on AS101 (20/200 at diagnosis)",20/50
same,last visual acuity,"Case 2, right eye, Nov. 11, 2014, on AS101",20/30
same,Angiogenesis inhibitor injections during treatment according to the invention,"Patient #1, LE (left eye), in 9 months, oral AS101",LE: 1 injection in 9
same,maximal time interval between injections,"Patient #2, during AS 101 treatment with Lucentis",injections: 14 months
same,Angiogenesis inhibitor injections during treatment according to the invention,"Patient #2, in 27 months, 12 drops AS101 orally, Lucentis PRN",4 injections
same,Angiogenesis inhibitor injections during treatment according to the invention,"Patient #2, in 27 months, 12 drops AS101 orally, Lucentis PRN, listed as AS 101",4 injections in 27
same,progression of drusens/dry AMD to Wet AMD,observation during the compassionate treatment,did not developed to Wet AMD
same,time intervals between Ranibizumab injections,"patient suffering from AMD, otherwise injected every month, with AS-101",9 months
B1,subretinal fluid (OCT),"Case 1, right eye, 3 intra-vitreal injections in one month intervals, before AS101",resolution of the subretinal fluid
